Here are results for 11 compounds from article PMC7733993, “Docking Characterization and in vitro Inhibitory Activity of Flavan-3-ols and Dimeric Proanthocyanidins Against the Main Protease Activity of SARS-Cov-2” (Frontiers in Plant Science, 2020).

“Also recorded” adds a separate entry of the source. Like-named read-outs stand apart in the source and are kept apart here.

The target in the experiment is 3CL Protease (M^pro) (SARS-CoV-2) (Severe acute respiratory syndrome coronavirus 2, UniProt P0DTD1). Nature of the experiment: biochemical. In kind it is biochemical. The conditions noted are these: for inhibitory activity against M^pro: concentration not given; for inhibition at 100 µM: read-out: M^pro activity inhibited compared with the negative control; for inhibitory effects on the activity of Mpro: eight concentrations (0-200 μM) tested, Figure S2; for inhibition of the M^pro activity: range of concentrations from 0 to 500 μM tested.

Broadly, the IC50 is the midpoint of a concentration-inhibition curve. A low value points to greater potency in that assay.

For the compound `O=C(OC1Cc2c(O)cc(O)cc2OC1c1cc(O)c(O)c(O)c1)c1cc(O)c(O)c(O)c1` (single isomer, unassigned; (-)) [EGCG, (–)-epigallocatechin-3-O-gallate], the “inhibitory activity against M^pro” value is listed as “inhibited” and the inhibition at 100 µM is 44.4%.

In the case of `Oc1cc(O)c2c(c1)O[C@H](c1ccc(O)c(O)c1)[C@@H](O)C2` [CA, (+)-catechin], the “inhibitory activity against M^pro” value is listed as “did not have inhibitory activities; also recorded: No inhibitory activity was detected”, the “inhibitory effects on the activity of Mpro” value (“inhibitory effects” below) was “No inhibitory effects” and the “inhibition of the M^pro activity” value is listed as “did not detect”.

In the case of `O=C(O[C@@H]1Cc2c(O)cc(O)cc2O[C@H]1c1ccc(O)c(O)c1)c1cc(O)c(O)c(O)c1` [CAG, (+)-catechin-3-O-gallate], the “inhibitory activity against M^pro” value is reported as “inhibited” and the inhibition at 100 µM turned out to be 40%.

For `Oc1cc(O)c2c(c1)O[C@H](c1ccc(O)c(O)c1)[C@H](O)C2` [EC, (–)-epicatechin], the “inhibitory activity against M^pro” value is listed as “did not have inhibitory activities; also recorded: No inhibitory activity was detected”, the “inhibitory effects” value is “No inhibitory effects” and the “inhibition of the M^pro activity” value is recorded as “did not detect”.

For the compound `O=C(O[C@@H]1Cc2c(O)cc(O)cc2O[C@@H]1c1ccc(O)c(O)c1)c1cc(O)c(O)c(O)c1` [ECG, (–)-epicatechin-3-O-gallate], half-maximal inhibition (IC50) was put at 5.21 ± 0.5 µM, the “inhibitory activity against M^pro” value is “inhibited” and the inhibition at 100 µM stood at 40%.

Turning to `Oc1cc(O)c2c(c1)O[C@H](c1cc(O)c(O)c(O)c1)[C@H](O)C2` [EGC, (–)-epigallocatechin], the “inhibitory activity against M^pro” value is “did not have inhibitory activities; also recorded: No inhibitory activity was detected”, the “inhibitory effects” value is given as “No inhibitory effects” and the “inhibition of the M^pro activity” value is given as “did not detect”.

For the compound `Oc1cc(O)c2c(c1)O[C@@H](c1cc(O)c(O)c(O)c1)[C@H](O)C2` [GC, (+)-gallocatechin], the “inhibitory activity against M^pro” value was “did not have inhibitory activities; also recorded: No inhibitory activity was detected”, the “inhibitory effects” value is reported as “No inhibitory effects” and the “inhibition of the M^pro activity” value was “did not detect”.

For the compound `O=C(O[C@@H]1Cc2c(O)cc(O)cc2O[C@H]1c1cc(O)c(O)c(O)c1)c1cc(O)c(O)c(O)c1` [GCG, (–)-gallocatechin-3-O-gallate], the “inhibitory activity against M^pro” value is given as “inhibited” and the inhibition at 100 µM was 50%.

As to `Oc1cc(O)c2c(c1)O[C@@]1(c3ccc(O)c(O)c3)Oc3cc(O)c4c(c3[C@@H]2[C@H]1O)O[C@H](c1ccc(O)c(O)c1)[C@H](O)C4` [PA2, procyanidin A2], the “inhibitory activity against M^pro” value was “did not have inhibitory activities”, the “inhibitory effects” value is “No inhibitory effects” and the “inhibition of the M^pro activity” value was “did not detect”.

As to `Oc1cc(O)c2c(c1)O[C@H](c1ccc(O)c(O)c1)[C@H](O)[C@H]2c1c(O)cc(O)c2c1O[C@H](c1ccc(O)c(O)c1)[C@H](O)C2` [PB2, procyanidin B2], half-maximal inhibition (IC50) required 75.3 ± 1.29 µM and the “inhibitory activity against M^pro” value was “inhibited”. For the setting “100 μM compound”, the inhibition at 100 µM was 81.5%.

As to `Oc1cc(O)c2c(c1)O[C@H](c1ccc(O)c(O)c1)[C@H](O)[C@H]2c1c(O)cc(O)c2c1O[C@H](c1ccc(O)c(O)c1)[C@@H](O)C2` [procyanidin B1], the “inhibitory activity against M^pro” value is on record as “inhibited”.
